Experimental data reported in US8633183B2 (priority 2010, dated 2014).

Target: PI3Kalpha (Homo sapiens (Human), UniProt P42336)
Conditions: read-out: IC50 PI3K

Sequence of PI3Kalpha (P42336 whole entry, looked up): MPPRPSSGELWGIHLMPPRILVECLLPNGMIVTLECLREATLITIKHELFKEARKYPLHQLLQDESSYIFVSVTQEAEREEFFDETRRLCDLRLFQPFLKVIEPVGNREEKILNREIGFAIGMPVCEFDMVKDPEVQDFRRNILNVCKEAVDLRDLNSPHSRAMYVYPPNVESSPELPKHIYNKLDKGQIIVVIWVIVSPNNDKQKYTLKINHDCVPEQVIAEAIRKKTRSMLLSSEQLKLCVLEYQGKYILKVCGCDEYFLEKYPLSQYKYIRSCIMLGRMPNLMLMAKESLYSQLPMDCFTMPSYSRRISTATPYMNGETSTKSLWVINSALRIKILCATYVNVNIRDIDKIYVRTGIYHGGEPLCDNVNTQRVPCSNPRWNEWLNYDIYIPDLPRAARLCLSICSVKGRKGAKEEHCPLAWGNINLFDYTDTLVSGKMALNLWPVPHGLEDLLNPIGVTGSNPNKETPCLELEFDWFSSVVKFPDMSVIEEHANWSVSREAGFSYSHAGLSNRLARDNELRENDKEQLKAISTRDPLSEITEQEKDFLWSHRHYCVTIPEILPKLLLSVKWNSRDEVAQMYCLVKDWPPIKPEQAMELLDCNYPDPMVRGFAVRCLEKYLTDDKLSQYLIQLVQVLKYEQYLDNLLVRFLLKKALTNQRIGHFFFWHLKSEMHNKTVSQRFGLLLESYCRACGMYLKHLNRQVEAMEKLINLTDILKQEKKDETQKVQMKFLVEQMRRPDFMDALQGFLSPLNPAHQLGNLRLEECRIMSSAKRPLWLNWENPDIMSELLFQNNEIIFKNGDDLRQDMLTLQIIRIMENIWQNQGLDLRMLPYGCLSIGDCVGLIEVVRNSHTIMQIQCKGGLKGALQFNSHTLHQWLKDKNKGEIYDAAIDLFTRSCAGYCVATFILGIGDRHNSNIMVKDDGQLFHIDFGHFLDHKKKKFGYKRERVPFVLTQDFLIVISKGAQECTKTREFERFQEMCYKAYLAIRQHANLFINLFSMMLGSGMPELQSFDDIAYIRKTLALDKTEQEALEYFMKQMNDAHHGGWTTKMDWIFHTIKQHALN

## CCc1ncnc(-c2ccc(C(=O)N3CCN(CC4CCCN(C)C4)CC3)c(F)c2)c1C#Cc1ccc(N)nc1 [Example D-114]
  IC50: 188 nM

## CCOC(=O)N1CCN(C(=O)c2ccc(-c3ncnc(CC)c3C#Cc3ccc(N)nc3)cc2F)CC1 [Example D-116]
  IC50: 129 nM

## CCc1ncnc(-c2ccc(C(=O)N3CCN(/C(=N\C#N)NC)CC3)c(F)c2)c1C#Cc1ccc(N)nc1 [Example D-117]
  IC50: 27 nM

## CCc1ncnc(-c2ccc(C(=O)N3CCCN(C)CC3)c(F)c2)c1C#Cc1ccc(N)nc1 [Example D-118]
  IC50: 404 nM

## CCc1ncnc(-c2ccc(C(=O)N(C)CCN3CCCC3=O)c(F)c2)c1C#Cc1ccc(N)nc1 [Example D-119]
  IC50: 55 nM

## CCc1ncnc(-c2ccc(C(=O)N3CCN(C4CC4)CC3)c(F)c2)c1C#Cc1ccc(N)nc1 [Example D-121]
  IC50: 127 nM

## CCc1ncnc(-c2ccc(C(=O)N3CCN(C(C)C)CC3)c(F)c2)c1C#Cc1ccc(N)nc1 [Example D-122]
  IC50: 198 nM

## CCc1ncnc(-c2ccc(C(=O)N3CCC(O)(C(F)(F)F)CC3)c(F)c2)c1C#Cc1ccc(N)nc1 [Example D-123]
  IC50: 324 nM

## CCc1ncnc(-c2ccc(C(=O)N3CCC(O)(C(C)C)CC3)c(F)c2)c1C#Cc1ccc(N)nc1 [Example D-124]
  IC50: 228 nM

## CCc1ncnc(-c2ccc(C(=O)N3CCC(O)(CC)CC3)c(F)c2)c1C#Cc1ccc(N)nc1 [Example D-125]
  IC50: 269 nM

## CCc1ncnc(-c2ccc(C(=O)N3CCC(O)(c4ccccc4)CC3)c(F)c2)c1C#Cc1ccc(N)nc1 [Example D-126]
  IC50: 142 nM

## CCc1ncnc(-c2ccc(C(=O)N3CCN(C)C(C)(C)C3)c(F)c2)c1C#Cc1ccc(N)nc1 [Example D-127]
  IC50: 344 nM

## CCc1ncnc(-c2ccc(C(=O)N3CCN(C)C(C)C3)c(F)c2)c1C#Cc1ccc(N)nc1 [Example D-128]
  IC50: 157 nM

## CCc1ncnc(-c2ccc(C(=O)N3CCN(C(C)CC)CC3)c(F)c2)c1C#Cc1ccc(N)nc1 [Example D-129]
  IC50: 392 nM

## CCc1ncnc(-c2ccc(C(=O)N3CCN(C(CC)CC)CC3)c(F)c2)c1C#Cc1ccc(N)nc1 [Example D-130]
  IC50: 384 nM

## CCc1ncnc(-c2ccc(C(=O)N3CCC[C@@H]3CO)c(F)c2)c1C#Cc1ccc(N)nc1 [Example D-131]
  IC50: 119 nM

## CCc1ncnc(-c2ccc(C(=O)N3CC(C)NC(C)C3)c(F)c2)c1C#Cc1ccc(N)nc1 [Example D-132]
  IC50: 184 nM

## CCc1ncnc(-c2ccc(C(=O)N3CCN(C)C(=O)C3)c(F)c2)c1C#Cc1ccc(N)nc1 [Example D-133]
  IC50: 115 nM

## CCc1ncnc(-c2ccc(C(=O)N3CCC[C@H]3CO)c(F)c2)c1C#Cc1ccc(N)nc1 [Example D-135]
  IC50: 136 nM

## CCc1ncnc(-c2ccc(C(=O)N3CCN(CC4CC4)CC3)c(Cl)c2)c1C#Cc1ccc(N)nc1 [Example D-136]
  IC50: 228 nM

## CCc1ncnc(-c2ccc(C(=O)N3CCC(C4CCN(C)CC4)CC3)c(Cl)c2)c1C#Cc1ccc(N)nc1 [Example D-139]
  IC50: 374 nM

## CCc1ncnc(-c2ccc(C(=O)NC3CCCN(C)C3)c(Cl)c2)c1C#Cc1ccc(N)nc1 [Example D-140]
  IC50: 510 nM

## CCc1ncnc(-c2ccc(C(=O)N3CCC(OC)CC3)c(Cl)c2)c1C#Cc1ccc(N)nc1 [Example D-142]
  IC50: 94 nM

## CCc1ncnc(-c2ccc(C(=O)N3CCC(C)(O)CC3)c(Cl)c2)c1C#Cc1ccc(N)nc1 [Example D-143]
  IC50: 77 nM

## CCc1ncnc(-c2ccc(C(=O)N3CC[C@H](O)C3)c(Cl)c2)c1C#Cc1ccc(N)nc1 [Example D-145]
  IC50: 58 nM

## CCc1ncnc(-c2ccc(C(=O)N3CC[C@@H](O)C3)c(Cl)c2)c1C#Cc1ccc(N)nc1 [Example D-146]
  IC50: 66 nM

## CCc1ncnc(-c2ccc(C(=O)N3CCCC(O)C3)c(Cl)c2)c1C#Cc1ccc(N)nc1 [Example D-147]
  IC50: 65 nM

## CCc1ncnc(-c2ccc(C(=O)N3CCNCC3)c(Cl)c2)c1C#Cc1ccc(N)nc1 [Example D-152]
  IC50: 164 nM

## CCc1ncnc(-c2ccc(C(=O)N(C)O)c(Cl)c2)c1C#Cc1ccc(N)nc1 [Example D-153]
  IC50: 67 nM

## CCc1ncnc(-c2ccc(C(=O)N3CCCN(C)CC3)c(Cl)c2)c1C#Cc1ccc(N)nc1 [Example D-154]
  IC50: 405 nM

## CCc1ncnc(-c2ccc(C(=O)N3CCN(c4ccncc4)CC3)c(Cl)c2)c1C#Cc1ccc(N)nc1 [Example D-155]
  IC50: 209 nM

## CCc1ncnc(-c2ccc(C(=O)N3CCCOCC3)c(Cl)c2)c1C#Cc1ccc(N)nc1 [Example D-157]
  IC50: 65 nM

## CCc1ncnc(-c2ccc(C(=O)NCC3(C)COC3)c(Cl)c2)c1C#Cc1ccc(N)nc1 [Example D-159]
  IC50: 66 nM

## CCc1ncnc(-c2ccc(C(=O)N3CCN(Cc4ccccc4)CC3)c(Cl)c2)c1C#Cc1ccc(N)nc1 [Example D-160]
  IC50: 658 nM

## Cc1ncnc(-c2ccc(C(=O)N3CCN(c4ccccc4)CC3)cc2)c1C#Cc1ccc(N)nc1 [Example D-188]
  IC50: 67 nM

## COCCN1CCN(C(=O)c2ccc(-c3ncnc(C)c3C#Cc3ccc(N)nc3)cc2)CC1 [Example D-189]
  IC50: 118 nM

## CCCCN1CCN(C(=O)c2ccc(-c3ncnc(C)c3C#Cc3ccc(N)nc3)cc2)CC1 [Example D-190]
  IC50: 153 nM

## Cc1ncnc(-c2ccc(C(=O)N3CCN4CCCCC4C3)cc2)c1C#Cc1ccc(N)nc1 [Example D-191]
  IC50: 81 nM

## Cc1ncnc(-c2ccc(C(=O)N3CCN(C4CCS(=O)(=O)C4)CC3)cc2)c1C#Cc1ccc(N)nc1 [Example D-192]
  IC50: 134 nM

## Cc1ncnc(-c2ccc(C(=O)N3CCN(C4CCOCC4)CC3)cc2)c1C#Cc1ccc(N)nc1 [Example D-193]
  IC50: 65 nM

## Cc1ncnc(-c2ccc(C(=O)N3CCN(CCO)CC3)cc2)c1C#Cc1ccc(N)nc1 [Example D-194]
  IC50: 106 nM

## CCc1ncnc(-c2ccc(C(=O)NCC(O)CN(C)C)c(F)c2)c1C#Cc1ccc(N)nc1 [Example D-196]
  IC50: 292 nM

## CCc1ncnc(-c2ccc(C(=O)NC3CCCN(C)C3)c(F)c2)c1C#Cc1ccc(N)nc1 [Example D-197]
  IC50: 280 nM

## CCc1ncnc(-c2ccc(C(=O)NC3CC(N4CCN(C)CC4)C3)c(F)c2)c1C#Cc1ccc(N)nc1 [Example D-198]
  IC50: 203 nM

## CCc1ncnc(-c2ccc(C(=O)NC3CCN(C)C3)c(F)c2)c1C#Cc1ccc(N)nc1 [Example D-199]
  IC50: 347 nM

## CCc1ncnc(-c2ccc(C(=O)NC[C@H]3CCCN3CC)c(F)c2)c1C#Cc1ccc(N)nc1 [Example D-200]
  IC50: 566 nM

## CCc1ncnc(-c2ccc(C(=O)NC3CCN(CCOC)CC3)c(F)c2)c1C#Cc1ccc(N)nc1 [Example D-201]
  IC50: 134 nM

## CCc1ncnc(-c2ccc(C(=O)NC3CC(C)(C)N(C)C(C)(C)C3)c(F)c2)c1C#Cc1ccc(N)nc1 [Example D-202]
  IC50: 413 nM

## CCc1ncnc(-c2ccc(C(=O)N3CC[C@H](O)C3)c(F)c2)c1C#Cc1ccc(N)nc1 [Example D-203]
  IC50: 57 nM

## CCc1ncnc(-c2ccc(C(=O)N3CC[C@@H](O)C3)c(F)c2)c1C#Cc1ccc(N)nc1 [Example D-204]
  IC50: 69 nM

## CCc1ncnc(-c2ccc(C(=O)NC3CCCN(C4CCN(C)CC4)C3)c(F)c2)c1C#Cc1ccc(N)nc1 [Example D-205]
  IC50: 335 nM

## CCc1ncnc(-c2ccc(C(=O)NC3CC(N4CCCCC4)C3)c(F)c2)c1C#Cc1ccc(N)nc1 [Example D-207]
  IC50: 436 nM

## CCc1ncnc(-c2ccc(C(=O)NC3CC(N4CCC(N5CCCC5)CC4)C3)c(F)c2)c1C#Cc1ccc(N)nc1 [Example D-208]
  IC50: 308 nM

## CCc1ncnc(-c2ccc(C(=O)NC3CCN(C4CCN(C)CC4)C3)c(F)c2)c1C#Cc1ccc(N)nc1 [Example D-210]
  IC50: 370 nM

## CCc1ncnc(-c2ccc(C(=O)NCCN3CCCC3=O)c(F)c2)c1C#Cc1ccc(N)nc1 [Example D-211]
  IC50: 46 nM

## CCc1ncnc(-c2ccc(C(=O)NC3CCS(=O)(=O)C3)c(F)c2)c1C#Cc1ccc(N)nc1 [Example D-212]
  IC50: 79 nM

## CCc1ncnc(-c2ccc(C(=O)NC3CC(C)(C)NC(C)(C)C3)c(F)c2)c1C#Cc1ccc(N)nc1 [Example D-213]
  IC50: 272 nM

## CCc1ncnc(-c2ccc(C(=O)NCC3(C)COC3)c(F)c2)c1C#Cc1ccc(N)nc1 [Example D-214]
  IC50: 72 nM

## CCc1ncnc(-c2ccc(C(=O)N3CCC(N(C)C)C3)c(F)c2)c1C#Cc1ccc(N)nc1 [Example D-215]
  IC50: 227 nM

## CCc1ncnc(-c2ccc(C(=O)N(C)C3CCS(=O)(=O)C3)c(F)c2)c1C#Cc1ccc(N)nc1 [Example D-216]
  IC50: 59 nM

## CCc1ncnc(-c2ccc(C(=O)NCCN3CCOCC3)c(F)c2)c1C#Cc1ccc(N)nc1 [Example D-217]
  IC50: 44 nM

## CCc1ncnc(-c2ccc(C(=O)N3CCCO3)c(F)c2)c1C#Cc1ccc(N)nc1 [Example D-218]
  IC50: 80 nM

## CCc1ncnc(-c2ccc(C(=O)N3CCCCO3)c(F)c2)c1C#Cc1ccc(N)nc1 [Example D-219]
  IC50: 105 nM

## CCc1ncnc(-c2ccc(C(=O)N3CCCO3)cc2)c1C#Cc1ccc(N)nc1 [Example D-222]
  IC50: 42 nM

## CCc1ncnc(-c2ccc(C(=O)N3CCCCO3)cc2)c1C#Cc1ccc(N)nc1 [Example D-223]
  IC50: 77 nM

## CCc1ncnc(-c2ccc(C(=O)N3CC(O)CO3)cc2)c1C#Cc1ccc(N)nc1 [Example D-224]
  IC50: 39 nM

## CCc1ncnc(-c2ccc(C(=O)N(C)OC)cc2)c1C#Cc1ccc(N)nc1 [Example D-225]
  IC50: 66 nM

## Cc1ncnc(-c2ccc(C(=O)N3CCCO3)c(F)c2)c1C#Cc1ccc(N)nc1 [Example D-226]
  IC50: 48 nM

## Cc1ncnc(-c2ccc(C(=O)N3CCCCO3)c(F)c2)c1C#Cc1ccc(N)nc1 [Example D-227]
  IC50: 47 nM

## Cc1ncnc(-c2ccc(C(=O)N3CC(O)CO3)c(F)c2)c1C#Cc1ccc(N)nc1 [Example D-228]
  IC50: 52 nM

## CON(C)C(=O)c1ccc(-c2ncnc(C)c2C#Cc2ccc(N)nc2)cc1F [Example D-229]
  IC50: 65 nM

## Cc1ncnc(-c2ccc(C(=O)N3CCCO3)c(Cl)c2)c1C#Cc1ccc(N)nc1 [Example D-230]
  IC50: 37 nM

## Cc1ncnc(-c2ccc(C(=O)N3CCCCO3)c(Cl)c2)c1C#Cc1ccc(N)nc1 [Example D-231]
  IC50: 46 nM

## Cc1ncnc(-c2ccc(C(=O)N3CC(O)CO3)c(Cl)c2)c1C#Cc1ccc(N)nc1 [Example D-232]
  IC50: 38 nM

## CCc1ncnc(-c2ccc(C(=O)N3CCC(N4CCOCC4)C3)c(F)c2)c1C#Cc1ccc(N)nc1 [Example D-234]
  IC50: 156 nM
